Values quoted from earlier work as cited in patent publication US20220257592A1, “METHODS OF TREATING CANCER” (HOFFMANN-LA ROCHE INC., priority 2019, published 2022).

Tests used:
[1] = biological target: anaplastic lymphoma kinase (ALK) (Homo sapiens, UniProt Q9UM73); conditions: cited from earlier work
[2] = test system: cancer having at least one molecular alteration in one or more of ALK, ROS1, TrkA, TrkB and TrkC; conditions: early clinical studies; cited from earlier work

Sequence of anaplastic lymphoma kinase (ALK) (Q9UM73 19-1620): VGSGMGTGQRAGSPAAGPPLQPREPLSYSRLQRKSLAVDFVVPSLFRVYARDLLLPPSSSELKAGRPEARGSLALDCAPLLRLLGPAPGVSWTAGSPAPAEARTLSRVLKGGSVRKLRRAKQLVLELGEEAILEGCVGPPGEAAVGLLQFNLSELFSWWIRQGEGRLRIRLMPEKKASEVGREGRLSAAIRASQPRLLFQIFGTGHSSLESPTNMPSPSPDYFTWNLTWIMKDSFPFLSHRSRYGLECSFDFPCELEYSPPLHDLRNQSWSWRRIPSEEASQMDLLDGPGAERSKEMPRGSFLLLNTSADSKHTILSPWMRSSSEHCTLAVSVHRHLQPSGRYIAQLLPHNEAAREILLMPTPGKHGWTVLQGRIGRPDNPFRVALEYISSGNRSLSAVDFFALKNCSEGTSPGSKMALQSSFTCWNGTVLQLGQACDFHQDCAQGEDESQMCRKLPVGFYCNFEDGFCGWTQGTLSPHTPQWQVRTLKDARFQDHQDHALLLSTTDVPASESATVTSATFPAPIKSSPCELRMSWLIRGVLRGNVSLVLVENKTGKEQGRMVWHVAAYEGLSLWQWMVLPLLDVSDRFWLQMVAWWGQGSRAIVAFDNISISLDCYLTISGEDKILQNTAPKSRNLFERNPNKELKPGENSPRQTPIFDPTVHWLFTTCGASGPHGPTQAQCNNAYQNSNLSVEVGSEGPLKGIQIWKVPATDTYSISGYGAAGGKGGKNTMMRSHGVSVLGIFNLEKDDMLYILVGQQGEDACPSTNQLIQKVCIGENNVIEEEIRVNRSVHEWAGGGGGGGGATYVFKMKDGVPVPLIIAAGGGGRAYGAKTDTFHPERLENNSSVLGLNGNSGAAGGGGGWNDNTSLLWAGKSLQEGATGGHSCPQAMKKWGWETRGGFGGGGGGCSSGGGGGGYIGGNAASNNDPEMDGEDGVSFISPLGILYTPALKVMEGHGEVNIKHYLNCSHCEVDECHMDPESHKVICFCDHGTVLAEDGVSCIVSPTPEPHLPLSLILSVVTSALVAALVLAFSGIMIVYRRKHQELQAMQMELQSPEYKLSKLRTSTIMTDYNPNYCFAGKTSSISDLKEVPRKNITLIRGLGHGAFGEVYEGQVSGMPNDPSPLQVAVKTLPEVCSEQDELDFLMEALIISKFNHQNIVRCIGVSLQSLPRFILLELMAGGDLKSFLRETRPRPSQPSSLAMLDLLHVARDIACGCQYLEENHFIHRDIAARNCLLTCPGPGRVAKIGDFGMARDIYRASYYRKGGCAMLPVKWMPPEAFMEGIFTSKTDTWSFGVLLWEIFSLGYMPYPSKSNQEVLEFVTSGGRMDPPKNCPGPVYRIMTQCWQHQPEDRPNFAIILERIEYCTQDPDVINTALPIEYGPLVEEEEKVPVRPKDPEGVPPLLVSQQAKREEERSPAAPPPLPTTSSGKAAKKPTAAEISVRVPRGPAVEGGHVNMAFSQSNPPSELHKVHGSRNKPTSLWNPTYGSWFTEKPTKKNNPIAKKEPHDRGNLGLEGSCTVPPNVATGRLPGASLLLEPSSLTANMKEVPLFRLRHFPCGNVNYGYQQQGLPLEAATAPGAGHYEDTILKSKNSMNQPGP

CN1CCN(c2ccc(C(=O)Nc3n[nH]c4ccc(Cc5cc(F)cc(F)c5)cc34)c(NC3CCOCC3)c2)CC1 [Entrectinib, N-[5-(3,5-difluorobenzyl)-1H-indazol-3-yl]-4-(4-methyl-piperazin-1-yl)-2-(tetrahydro-pyran-4-ylamino)-benzamide]
inhibition of ALK tyrosine kinase [1]: potent inhibitor
antitumor effects in patients [2]: antitumor effects
